Like-named read-outs stand apart in the source and are kept apart here.
Key:
[1] = system: caterpillars of the armyworm (Spodoptera frugiperda); test: Spodoptera frugiperda test (SPODFR spray treatment); assay type: in vivo; conditions: 168 h, read-out: activity in %
Description: (§1) Solvents: 78.0 parts by weight of acetone • • 1.5 parts by weight of dimethylformamide
(§2) Emulsifier: 0.5 part by weight of alkylaryl polyglycol ether
(§3) An appropriate preparation of active compound is prepared by mixing 1 part by weight of active compound with the stated amounts of solvent and emulsifier and diluting the concentrate with emulsifier-containing water to the desired concentration.
Leaf discs of maize (Zea mays) are sprayed with a preparation of active compound at the desired concentration and, after drying, are populated with caterpillars of the armyworm (Spodoptera frugiperda).
After 7 days, the activity in % is ascertained. Here, 100% means that all of the caterpillars have been killed; 0% means that no caterpillar has been killed.

[2] = system: larvae of the mustard beetle (Phaedon cochleariae); test: Phaedon test (PHAECO spray treatment); assay type: in vivo; conditions: 168 h, read-out: activity in %
Description: as §1, §2, §3
After 7 days, the activity in % is ascertained. Here, 100% means that all of the beetle larvae have been killed; 0% means that no beetle larvae have been killed.

[3] = log P determination by HPLC on reversed-phase columns (EEC Directive 79/831 Annex V.A8); assay type: physicochemical; conditions: pH 2.7
Description: Determination by LC-MS in the acidic range takes place at a pH of 2.7 using 0.1% aqueous formic acid and acetonitrile (containing 0.1% formic acid) as eluents, with a linear gradient from 10% acetonitrile to 95% acetonitrile.
Calibration was carried out using unbranched alkan-2-ones (having 3 to 16 carbon atoms) with known log P values (the log P values are determined from the retention times by linear interpolation between two successive alkanones).

[4] = reversed-phase C18 HPLC column, HPLC on reversed-phase columns (C 18), EEC Directive 79/831 Annex V.A8, read-out: logP
[5] = HPLC on reversed-phase columns (C 18), EEC Directive 79/831 Annex V.A8, read-out: logP

SMILES	pest or weed control at 100 g/ha ([1]; 100 g/ha, after 7 days)	pest or weed control at 100 g/ha ([2]; 100 g/ha, after 7 days)	chromatographic logP [3]	chromatographic logP [3, 4]	pest or weed control at 100 g/ha [1]	pest or weed control at 100 g/ha [2]	chromatographic logP [3, 5]
CNC(=O)c1cc(C#N)cc(C)c1NC(=O)c1cc(Cn2ncc(-c3cccc(Cl)c3)n2)nn1-c1ncccc1Cl [Example 44]	100%	100%	3.23	–	–	–	–
CNC(=O)c1cc(C#N)cc(C)c1NC(=O)c1cc(Cn2cc(-c3ccc(C(F)(F)F)cc3)nn2)nn1-c1ncccc1Cl [Example 3]	100%	100%	2.99	–	–	–	–
Cc1cc(C#N)cc(C(=O)NC(C)(C)C)c1NC(=O)c1cc(Cn2ncc(-c3ccc(F)cc3)n2)nn1-c1ncccc1Cl [Example 61]	100%	100%	3.72	–	–	–	–
CNC(=O)c1cc(C#N)cc(C)c1NC(=O)c1cc(Cn2nc3cc(Cl)c(Cl)cc3n2)nn1-c1ncccc1Cl [Example 81]	100%	100%	3.35	–	–	–	–
Cc1cc(Cl)cc(C(=O)NC(C)C2CC2)c1NC(=O)c1cc(Cn2ncc(C(F)(C(F)(F)F)C(F)(F)F)n2)nn1-c1ncccc1Cl (stereo not drawn) [Example 258]	100%	100%	–	4.61	–	–	–
Cc1cc(I)cc(C(=O)NCC2CC2)c1NC(=O)c1cc(Cn2cc(C(F)(F)C(F)(F)C(F)(F)F)nn2)nn1-c1ncccc1Cl [Example 333]	–	–	–	–	100%	100%	4.13
Cc1cc(C#N)cc(C(=O)NC2(C3CC3)CC2)c1NC(=O)c1cc(Cn2ncc(C(F)(C(F)(F)F)C(F)(F)F)n2)nn1-c1ncccc1Cl [Example 283]	100%	100%	–	4.12	–	–	–
Cc1cc(Cl)cc(C(N)=O)c1NC(=O)c1cc(Cn2nc(C(F)(F)F)c(C(F)(F)F)n2)nn1-c1ncccc1Cl [Example 407]	100%	100%	3.49	–	–	–	–
N#CCNC(=O)c1cc(Cl)cc(Cl)c1NC(=O)c1cc(Cn2ncc(C(F)(F)F)n2)nn1-c1ncccc1Cl [Example 154]	100%	100%	2.9	–	–	–	–
CC(C)(C)NC(=O)c1cc(Cl)cc(Cl)c1NC(=O)c1cc(Cn2cc(C(F)(C(F)(F)F)C(F)(F)F)nn2)nn1-c1ncccc1Cl [Example 244]	100%	100%	–	4.13	–	–	–
Cc1cc(I)cc(C(=O)NC(C)C2CC2)c1NC(=O)c1cc(Cn2cc(C(F)(F)C(F)(F)C(F)(F)F)nn2)nn1-c1ncccc1Cl (stereo not drawn) [Example 336]	–	–	–	–	100%	100%	4.36
Cc1cc(C#N)cc(C(=O)NC(C)(C)C)c1NC(=O)c1cc(Cn2nc3cc(OC(F)(F)F)cc(Br)c3n2)nn1-c1ncccc1Cl [Example 112]	100%	100%	–	4.59	–	–	–
CNC(=O)c1cc(Cl)cc(C)c1NC(=O)c1cc(Cn2nnc3c(Cl)cc(C(F)(F)F)cc32)nn1-c1ncccc1Cl [Example 89]	100%	100%	3.59	–	–	–	–
CNC(=O)c1cc(C#N)cc(C)c1NC(=O)c1cc(Cn2cc(C(C)C)nn2)nn1-c1ncccc1Cl [Example 30]	–	100%	2.03	–	–	–	–
Cc1cc(Cl)cc(C(=O)NC2CCC2)c1NC(=O)c1cc(Cn2ncc(C(F)(F)F)n2)nn1-c1ncccc1Cl [Example 142]	100%	100%	3.64	–	–	–	–
CCNC(=O)c1cc(I)cc(C)c1NC(=O)c1cc(Cn2cc(C(F)(F)C(F)(F)F)nn2)nn1-c1ncccc1Cl [Example 311]	100%	100%	3.49	–	–	–	–
CNC(=O)c1cc(Cl)cc(C)c1NC(=O)c1cc(Cn2cc(-c3ccc(Cl)cc3Cl)nn2)nn1-c1ncccc1Cl [Example 18]	100%	100%	3.2	–	–	–	–

SMILES	pest or weed control at 100 g/ha ([1]; 100 g/ha, after 7 days)	pest or weed control at 100 g/ha ([2]; 100 g/ha, after 7 days)	chromatographic logP [3]	chromatographic logP [3, 4]	pest or weed control at 100 g/ha [1]	pest or weed control at 100 g/ha [2]	chromatographic logP [3, 5]
NC(=O)c1cc(Cl)cc(Cl)c1NC(=O)c1cc(Cn2ncc(C(F)(C(F)(F)F)C(F)(F)F)n2)nn1-c1ncccc1Cl [Example 279]	100%	100%	3.46	–	–	–	–
CNC(=O)c1cc(I)cc(C)c1NC(=O)c1cc(Cn2cc(C(F)(C(F)(F)F)C(F)(F)F)nn2)nn1-c1ncccc1Cl [Example 233]	100%	100%	3.59	–	–	–	–
CNC(=O)c1cc(Cl)cc(C)c1NC(=O)c1cc(Cn2nnc3c(Br)cc(OC(F)(F)F)cc32)nn1-c1ncccc1Cl [Example 90]	100%	100%	3.74	–	–	–	–
Cc1cc(Cl)cc(C(=O)NC(C)C)c1NC(=O)c1cc(Cn2cc(C(F)(C(F)(F)F)C(F)(F)F)nn2)nn1-c1ncccc1Cl [Example 227]	100%	100%	3.85	–	–	–	–
CNC(=O)c1cc(C#N)cc(C)c1NC(=O)c1cc(Cn2nc3ccc(C(F)(F)F)cc3n2)nn1-c1ncccc1Cl [Example 102]	100%	100%	3.19	–	–	–	–
Cc1cc(C#N)cc(C(=O)NC(C)(C)C)c1NC(=O)c1cc(Cn2ncc(C(F)(C(F)(F)F)C(F)(F)F)n2)nn1-c1ncccc1Cl [Example 252]	100%	100%	–	4.21	–	–	–
Cc1cc(C#N)cc(C(=O)NC2CC2)c1NC(=O)c1cc(Cn2ncc(C(F)(F)C(F)(F)C(F)(F)F)n2)nn1-c1ncccc1Cl [Example 376]	–	–	–	–	100%	100%	3.63
CNC(=O)c1cc(Cl)cc(C)c1NC(=O)c1cc(Cn2ncc(C(F)(C(F)(F)F)C(F)(F)F)n2)nn1-c1ncccc1Cl [Example 257]	100%	100%	3.76	–	–	–	–
CNC(=O)c1cc(C#N)cc(C)c1NC(=O)c1cc(Cn2ncc(C(C)C)n2)nn1-c1ncccc1Cl [Example 38]	–	100%	2.58	–	–	–	–
CSC[C@H](C)NC(=O)c1cc(I)cc(C)c1NC(=O)c1cc(Cn2nc(C(F)(F)F)c(C(F)(F)F)n2)nn1-c1ncccc1Cl [Example 388]	100%	100%	4.64	–	–	–	–
CNC(=O)c1cc(C#N)cc(C)c1NC(=O)c1cc(Cn2cc(C(C)(C)C)nn2)nn1-c1ncccc1Cl [Example 31]	–	100%	2.25	–	–	–	–
CNC(=O)c1cc(C#N)cc(C)c1NC(=O)c1cc(Cn2cc(C3CC3)nn2)nn1-c1ncccc1Cl [Example 29]	–	100%	1.86	–	–	–	–
Cc1cc(C#N)cc(C(=O)NCC#N)c1NC(=O)c1cc(Cn2cc(C(F)(F)F)nn2)nn1-c1ncccc1Cl [Example 186]	–	100%	2.32	–	–	–	–
CNC(=O)c1cc(Cl)cc(C)c1NC(=O)c1cc(Cn2cc(C(C)C)nn2)nn1-c1ncccc1Cl [Example 14]	–	83%	2.29	–	–	–	–
Cc1cc(Cl)cc(C(=O)NC(C)(C)C)c1NC(=O)c1cc(Cn2ncc(C3CC3)n2)nn1-c1ncccc1Cl [Example 46]	–	100%	3.6	–	–	–	–
CNC(=O)c1cc(C#N)cc(C)c1NC(=O)c1cc(Cn2ncc(C3CC3)n2)nn1-c1ncccc1Cl [Example 37]	–	100%	2.28	–	–	–	–
Cc1cc(I)cc(C(=O)NC2CCC2)c1NC(=O)c1cc(Cn2ncc(C(F)(F)F)n2)nn1-c1ncccc1Cl [Example 164]	–	100%	3.89	–	–	–	–

— US8536202B2, “Triazole-substituted anthranilamides as pesticides” (Bayer Cropscience AG, priority 2010, dated 2013)
